Assay results as given in patent publication US6844358B2, “Phenyl oxo-acetic acids useful in the treatment of insulin resistance and hyperglycemia” (Wyeth, priority 1998, dated 2005).
Where two headings read alike, the source gives them in different places.

Legend:
diabetic (ob/ob) mice = assay: Blood glucose lowering activity in diabetic (ob/ob) mice; format: in vivo; conditions: Mus musculus, po
Description: The procedures used and results obtained are briefly described below. […]
In each test procedure, mice [Male or female ob/ob (C57 B1/6J) and their lean litermates (ob/+ or +/+, Jackson Laboratories) ages 2 to 5 months (10 to 65 g)] of a similar age were randomized according to body weight into 4 groups of 10 mice. The mice were housed 5 per cage and are maintained on normal rodent chow with water ad libitum. Mice received test compound daily by gavage (suspended in 0.5 ml of 0.5% methyl cellulose); dissolved in the drinking water; or admixed in the diet. The dose of compounds given ranges from 2.5 to 200 mg/kg body weight/day. The dose is calculated based on the fed weekly body weight and is expressed as active moiety. […] Control mice received vehicle only.
On the morning of Day 4, 7 or 14 two drops of blood (approximetly 50 ul) were collected into sodium fluoride containing tubes either from the tail vein or after decapitation. For those studies in which the compound was administered daily by gavage the blood samples were collected two hours after compound administration. […]
Analysis of variance followed by Dunett's Comparison Test (one-tailed) are used to estimate the significant difference between the plasma glucose values from the control group and the individual compound treated groups (CMS SAS Release 5.18).

[1] = target: rat hepatic microsomal PTPases; conditions: rat hepatic microsomal PTPase; for IC50: dodecaphosphopeptide substrate 50 uM; for % Change from Control at 50 μM: 50 μM compound
[2] = target: T1, recombinant rat protein tyrosine phosphatase, PTP1B (rPTP1B) (Rattus norvegicus, UniProt P20417); format: biochemical; conditions: for % change from control at 10 μM: 10 μM compound
T1 sequence (P20417 1-432): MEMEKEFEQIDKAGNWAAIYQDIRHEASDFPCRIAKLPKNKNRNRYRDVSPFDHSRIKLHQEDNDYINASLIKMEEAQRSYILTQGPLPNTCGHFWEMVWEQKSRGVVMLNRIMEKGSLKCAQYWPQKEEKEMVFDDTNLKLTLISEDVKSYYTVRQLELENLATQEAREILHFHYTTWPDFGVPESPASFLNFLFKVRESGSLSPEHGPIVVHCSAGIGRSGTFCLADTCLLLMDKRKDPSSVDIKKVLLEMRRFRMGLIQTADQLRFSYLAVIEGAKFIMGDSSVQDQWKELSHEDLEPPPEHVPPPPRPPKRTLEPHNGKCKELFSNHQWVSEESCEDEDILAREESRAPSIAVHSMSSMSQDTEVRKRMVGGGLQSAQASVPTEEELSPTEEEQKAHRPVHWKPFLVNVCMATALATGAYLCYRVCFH

[3] = 96 h, plasma glucose on Day 4, 7 or 14, suffix a = no significant activity at this dose, read-out: % Change Glucose from Vehicle
[4] = suffix a = no significant activity at this dose, read-out: % Change Insulin from Vehicle

SMILES	IC50 [1] [µM]	% Change from Control at 50 μM [1] [%]	% change from control at 10 μM ([2]; rPTP1B)	melting point [°C]	IC50 ([2]; rPTP1B, read-out: IC50) [µM]	change in vivo at 100 mg/kg (diabetic (ob/ob) mice; [3]) [%]	change in vivo at 100 mg/kg (diabetic (ob/ob) mice; [4]) [%]	IC50 [2] [µM]
CC1(COc2ccc(CC3SC(=O)NC3=O)cc2)CCCCC1 (centres unmarked) [Ciglitazone, 5-(4-(1-methylcyclohexylmethoxy)benzyl)-2,4-dione, reference compound]	–	–	–	–	–	-43	-39	–
CCc1oc2ccccc2c1C(=O)c1cc(Br)c(O)c(Br)c1 [Example 1, (2-Ethyl-benzofuran-3-yl)-(3,5-dibromo-4-hydroxy-phenyl)-methanone]	70.1	–	–	–	–	-44.6	-89.5	25.8
CCc1oc2ccccc2c1Cc1cc(Br)c(O)c(Br)c1 [Example 3, 2,6-Dibromo-4-(2-ethyl-benzofuran-3-yl-methyl)-phenol]	–	−34	−74 (rPTP1B) %	87 to 88	–	-6.2	-56.6	–
CCc1oc2ccccc2c1C(=O)c1cc(Br)c(O)c(Br)c1O [Example 4, (3,5-Dibromo-2,4-dihydroxy-phenyl)-(2-ethyl-benzofuran-3-yl)-methanone]	34.3	–	−64 (rPTP1B) %	150 to 151	–	-19.8	-61.8	–
CCCCc1oc2ccccc2c1C(=O)c1cc(Br)c(OCC(=O)O)c(Br)c1 [Example 5, [2,6-Dibromo-4-(2-butyl-benzofuran-3-carbonyl)-phenoxy]-acetic acid]	31.2	–	−78 (rPTP1B) %	92 to 94	–	-20.1	-54.8	–
CCCCc1oc2ccccc2c1C(=O)c1cc(Br)c(O)c(Br)c1 [Example 6, (2-Butyl-benzofuran-3-yl)-(3,5-dibromo-4-dihydroxy-phenyl)-methanone]	24.2	–	−90 (rPTP1B) %	–	–	-40.6	-70.4	–
CCc1oc2ccccc2c1C(=O)c1c(Br)cc(Br)c(O)c1Br [Example 8, (2-Ethyl-benzofuran-3-yl)-(2,4,6-tribromo-3-hydroxy-phenyl)-methanone]	17.5	–	−61 (rPTP1B) %	153 to 154	–	-3.3	-31.2	–
CCc1oc2ccc(Cl)cc2c1C(=O)c1cc(Br)c(O)c(Br)c1 [Example 13, (5-Chloro-2-ethyl-benzofuran-3-yl)-(3,5-dibromo-4-hydroxy-phenyl)-methanone]	27.1	–	−64 (rPTP1B) %	–	–	-12	-74.5	–
CCc1oc2ccccc2c1C(=O)c1cc(I)c(O)c(I)c1 [Example 18, (2-ethyl-benzofuran-3-yl)-(4-hydroxy-3,5-diiodo-phenyl)-methanone]	30.7	–	−60 (rPTP1B) %	–	–	-39.6	-83.6	–
CCc1oc2ccc(Cl)cc2c1C(=O)c1cc(Br)c(OCC(=O)O)c(Br)c1 [Example 20, [2,6-dibromo-4-(5-chloro-2-ethyl-1-benzofuran-3-carbonyl)-phenoxy]-acetic acid]	40.4	–	−34 (rPTP1B) %	175 to 177	–	–	–	–

More lines, main results first:

IC50 [1] [µM]	% Change from Control at 50 μM [1] [%]	% change from control at 10 μM ([2]; rPTP1B)	melting point [°C]	IC50 ([2]; rPTP1B, read-out: IC50) [µM]	SMILES	change in vivo at 100 mg/kg (diabetic (ob/ob) mice; [3]) [%]	change in vivo at 100 mg/kg (diabetic (ob/ob) mice; [4]) [%]	IC50 [2] [µM]
–	−25	−30 (rPTP1B) %	135 to 137	–	CCc1oc2ccccc2c1C(=O)c1cc(Br)c(OCC(=O)O)c(Br)c1 [Example 2, [2,6-dibromo-4-(2-ethyl-benzofuran-3-carbonyl)-phenoxy]-acetic acid]	-48.1	-78.2	–
22.7	–	−99 (rPTP1B) %	153 to 154	–	O=C(c1cc(I)c(O)c(I)c1)c1c(Cc2ccccc2)oc2ccccc12 [Example 9, (2-Benzyl-benzofuran-3-yl)-(4-hydroxy-3,5-diiodo-phenyl)-methanone]	-37.1	-73.7	–
36	–	−75 (rPTP1B) %	165 to 167	–	O=C(O)COc1c(Br)cc(C(=O)c2c(Cc3ccccc3)oc3ccccc23)cc1Br [Example 10, [4-(2-Benzyl-benzofuran-3-carbonyl)-2,6-dibromo-phenoxy]-acetic acid]	-17.7	-70	–
27.8	–	−88 (rPTP1B) %	162 to 163	–	O=C(O)COc1c(Br)cc(C(=O)c2c(Cc3ccccc3)sc3ccccc23)cc1Br [Example 12, [4-(2-Benzyl-benzo[b]thiophen-3-carbonyl)-2,6-dibromo-phenoxy]-acetic acid]	-30.7	-60.7	–
27.8	–	−81 (rPTP1B) %	156 to 158	–	O=C(c1cc(Br)c(O)c(Br)c1)c1c(Cc2ccccc2)oc2ccccc12 [Example 14, (2-Benzyl-benzofuran-3-yl)-(3,5-dibromo-4-hydroxy-phenyl)-methanone]	-36.8	-40.7	–
20.5	–	–	153 to 154	2.6	O=C(c1cc(Br)c(O)c(Br)c1)c1c(CCc2ccccc2)oc2ccccc12 [Example 15, (3,5-Dibromo-4-hydroxy-phenyl)-(2-phenethyl-benzofuran-3-yl)-methanone]	-32.8	-10.3	–
28.4	–	−97 (rPTP1B) %	144 to 146	–	O=C(O)COc1c(I)cc(C(=O)c2c(Cc3ccccc3)oc3ccccc23)cc1I [Example 17, [4-(2-Benzyl-benzofuran-3-carbonyl)-2,6-diiodo-phenoxy]-acetic acid]	–	–	–
26.3	–	−53 (rPTP1B) %	163 to 164	–	O=C(O)COc1c(Br)cc(C(=O)c2c(CCc3ccccc3)oc3ccccc23)cc1Br [Example 19, [2,6-Dibromo-4-(2-phenethyl-benzofuran-3-carbonyl)-phenoxy]-acetic acid]	–	–	–
34.5	–	−35 (rPTP1B) %	210 to 212	–	O=C(c1cc(Br)c(OCP(=O)(O)O)c(Br)c1)c1c(Cc2ccccc2)sc2ccccc12 [Example 21, [4-(2-benzyl-benzo[b]thiophen-3-carbonyl)-2,6-dibromo-phenoxymethyl]-phosphonic acid]	–	–	–
